Data on eight molecules can be found in PubChem BioAssay (NCI).

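Five compound concentrations were applied to cells in 96-well plates for 48 hours; endpoints were derived by simple linear interpolation of the resulting dose-response curve. TGI marks complete inhibition of growth.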

Among the test systems are T-47D breast; DU-145 prostate; LOX IMVI melanoma; MCF7 breast; IGROV1 ovarian; RPMI-8226 leukemia; SK-MEL-5 melanoma; BT-549 breast; SF-268 CNS; MDA-N; NCI-H460 lung; ACHN renal; M14 melanoma; NCI-H23 lung; NCI-H226 lung; TK-10 renal; OVCAR-8 ovarian; HCT-15 colon; HCC-2998 colon.
What all share (assay): DTP human tumour cell line panel, 48 h

Usually TGI stands for the concentration giving total growth inhibition. A lower TGI goes with more potent growth arrest. For `COc1cc2c3c(n(Cc4ccccc4)c(=O)c2cc1OC)-c1ccccc1C3=O`, the TGI in the experiment on T-47D breast, in the experiment on DU-145 prostate, in the experiment with LOX IMVI melanoma, in the experiment on MCF7 breast, with IGROV1 ovarian and with RPMI-8226 leukemia was more than 100 µM throughout. Besides, the TGI in the experiment on SK-MEL-5 melanoma, in the experiment with BT-549 breast, in the experiment on SF-268 CNS, with MDA-N, in the experiment with NCI-H460 lung and with ACHN renal was more than 100 µM throughout. Further, the TGI with M14 melanoma, in the experiment with NCI-H23 lung, in the experiment with NCI-H226 lung, in the experiment with TK-10 renal, in the experiment on OVCAR-8 ovarian and with HCT-15 colon was more than 100 µM throughout. Further, the TGI in the experiment on HCC-2998 colon is more than 100 µM.
Turning to `O=C(/C=C\Nc1ccccc1O)C(Cl)(Cl)Cl`, the TGI in the experiment with T-47D breast was 96.4 µM; in the experiment with DU-145 prostate, more than 100 µM; in the experiment with LOX IMVI melanoma, more than 100 µM; with MCF7 breast, 64.5 µM; in the experiment on IGROV1 ovarian, more than 100 µM; in the experiment on RPMI-8226 leukemia it was more than 100 µM. Further, the total growth inhibition concentration (TGI) in the experiment with SK-MEL-5 melanoma is more than 100 µM; in the experiment with BT-549 breast, more than 100 µM; with SF-268 CNS, more than 100 µM; with MDA-N, 59.2 µM; with NCI-H460 lung it was more than 100 µM; in the experiment on ACHN renal, more than 100 µM. The concentration for total growth inhibition (TGI) in the experiment on M14 melanoma, in the experiment on NCI-H23 lung, with NCI-H226 lung, in the experiment on TK-10 renal, in the experiment with OVCAR-8 ovarian and in the experiment with HCT-15 colon was more than 100 µM in each case. In the experiment with HCC-2998 colon, the TGI amounted to 52.6 µM.
Regarding `CC1=C(C(=O)NCC(C)O)CC(C(=O)NCC(C)O)=C(C)N1` (stereo unspecified), the TGI in the experiment with T-47D breast, with DU-145 prostate, with LOX IMVI melanoma, in the experiment on MCF7 breast, in the experiment on IGROV1 ovarian and with RPMI-8226 leukemia was more than 100 µM each time. Moreover, the TGI with SK-MEL-5 melanoma, with BT-549 breast, in the experiment on SF-268 CNS, in the experiment on MDA-N, with NCI-H460 lung and in the experiment on ACHN renal was more than 100 µM each time. Further, the TGI in the experiment with M14 melanoma, with NCI-H23 lung, with NCI-H226 lung, in the experiment on TK-10 renal, with OVCAR-8 ovarian and in the experiment on HCT-15 colon was more than 100 µM in each case. The molecule also registered a TGI with HCC-2998 colon of more than 100 µM.
As for `COc1ccccc1N=N/C(=N/NC(=O)c1ccc(C)cc1)c1ccc(N(CCC#N)CCC#N)cc1OC`, the total growth inhibition concentration (TGI) in the experiment with T-47D breast was 96 µM; in the experiment with DU-145 prostate, more than 100 µM; in the experiment with LOX IMVI melanoma it was more than 100 µM; with MCF7 breast it was 63.1 µM; with IGROV1 ovarian, more than 100 µM; with RPMI-8226 leukemia it was 33.5 µM. Besides, the TGI with SK-MEL-5 melanoma is more than 100 µM; in the experiment with BT-549 breast it was 97.4 µM; in the experiment with SF-268 CNS it was 77.8 µM; with MDA-N it was 53.5 µM; in the experiment with NCI-H460 lung, more than 100 µM; with ACHN renal, 55.9 µM. Moreover, the total growth inhibition concentration (TGI) with M14 melanoma, in the experiment on NCI-H23 lung, in the experiment on NCI-H226 lung, with TK-10 renal, in the experiment with OVCAR-8 ovarian and in the experiment on HCT-15 colon was more than 100 µM in each case. The molecule further came in with a total growth inhibition concentration (TGI) with HCC-2998 colon of more than 100 µM.
As to `Cc1ccc([N+](=O)[O-])cc1S(=O)(=O)Nc1ccc(C2=NNC(c3cccs3)C2)cc1` (stereo unspecified), the TGI in the experiment on T-47D breast is 43.4 µM; in the experiment with DU-145 prostate it was more than 100 µM; with LOX IMVI melanoma, more than 100 µM; in the experiment with MCF7 breast, 47.8 µM; in the experiment on IGROV1 ovarian it was more than 100 µM; with RPMI-8226 leukemia it was more than 100 µM. The TGI in the experiment with SK-MEL-5 melanoma was 46.3 µM; with BT-549 breast, 83.8 µM; with SF-268 CNS, more than 100 µM; in the experiment with MDA-N it was more than 100 µM; in the experiment on NCI-H460 lung, more than 100 µM; in the experiment with ACHN renal it was 82.9 µM. Further, the TGI with M14 melanoma is 68.8 µM; in the experiment on NCI-H23 lung, more than 100 µM; in the experiment on NCI-H226 lung, more than 100 µM; in the experiment with OVCAR-8 ovarian, more than 100 µM; with HCT-15 colon, more than 100 µM; with HCC-2998 colon it was more than 100 µM.
Turning to `OCCN=C1c2ccccc2C2C(c3ccccc31)C1c3ccccc3C(=NCCO)c3ccccc3C21` (stereo unspecified), the total growth inhibition concentration (TGI) in the experiment on T-47D breast stood at 97 µM; with DU-145 prostate, 54.3 µM; with LOX IMVI melanoma, 52.6 µM; in the experiment with MCF7 breast it was 60 µM; in the experiment on IGROV1 ovarian, 98.5 µM; in the experiment with RPMI-8226 leukemia, 37.2 µM. The TGI in the experiment with SK-MEL-5 melanoma is 35.2 µM; in the experiment on BT-549 breast, 52.3 µM; in the experiment on SF-268 CNS it was more than 100 µM; in the experiment with MDA-N it was 31.3 µM; with NCI-H460 lung, 58.3 µM; in the experiment on ACHN renal it was 76.9 µM. The TGI in the experiment on M14 melanoma is 42.3 µM; in the experiment with NCI-H23 lung it was more than 100 µM; with NCI-H226 lung, 17.8 µM; in the experiment with TK-10 renal, 79.5 µM; in the experiment on OVCAR-8 ovarian, more than 100 µM; in the experiment on HCT-15 colon it was 63.9 µM. This molecule also registered a TGI in the experiment with HCC-2998 colon of 40.5 µM.
As for `O=c1[nH]c(Nc2cccc(Br)c2)nc2nc[nH]c12`, the TGI in the experiment with T-47D breast, in the experiment with DU-145 prostate, in the experiment with LOX IMVI melanoma, with MCF7 breast, in the experiment with IGROV1 ovarian and in the experiment with RPMI-8226 leukemia was more than 100 µM in each case. Further, the TGI in the experiment on SK-MEL-5 melanoma, with BT-549 breast, in the experiment with SF-268 CNS, in the experiment on MDA-N, with NCI-H460 lung and in the experiment on ACHN renal was more than 100 µM each time. For the same molecule, the total growth inhibition concentration (TGI) in the experiment with M14 melanoma, in the experiment on NCI-H23 lung, with NCI-H226 lung, with TK-10 renal, in the experiment with OVCAR-8 ovarian and with HCT-15 colon was more than 100 µM in each case. In the experiment with HCC-2998 colon, this molecule displayed a TGI of more than 100 µM.
In the case of `Cc1ccc2cccc3c2c1CC1(C3=O)S(=O)(=O)OCCOS1(=O)=O`, the TGI in the experiment on T-47D breast, in the experiment with DU-145 prostate, in the experiment on LOX IMVI melanoma, with MCF7 breast, in the experiment with IGROV1 ovarian and with RPMI-8226 leukemia was more than 100 µM each time. Moreover, the TGI in the experiment with SK-MEL-5 melanoma, in the experiment on BT-549 breast, in the experiment with SF-268 CNS, in the experiment with MDA-N, in the experiment with NCI-H460 lung and in the experiment with ACHN renal was more than 100 µM throughout. Besides, the TGI with M14 melanoma, in the experiment on NCI-H23 lung, in the experiment on NCI-H226 lung, in the experiment with TK-10 renal, with OVCAR-8 ovarian and in the experiment on HCT-15 colon was more than 100 µM throughout. This molecule yielded a TGI in the experiment on HCC-2998 colon of more than 100 µM.
